Paper PMC5589090 (PLoS Medicine, 2017)
“And” between values parts separate entries of the source, which are not always exact repeats. Equal values may be shown once. Read-outs that look alike come from different tables or passages of the source.

Tests used:
[1] = system: LINE-1 repetitive element CpG; experiment: Methylation level of LINE-1 repetitive element CpG by pyrosequencing in PBMC; format: in vivo, human
Procedure: DNA was purified from peripheral blood mononuclear cells (isolated by Ficoll-Hypaque density centrifugation) using the Wizard Genomic DNA Purification Kit (Promega). DNA was bisulfite-converted using EZ DNA Lightning Methylation kit (Zymo Research). The PCR primers were 10 pmol of 5′- […]-3′ and 10 pmol of biotinylated-5′-[…]-3′. PCR cycling conditions were: cycle temperature of 94°C for 30 seconds, 60°C for 30 seconds, and 72°C for 30 seconds, for 45 cycles to consume all the biotinylated primers. The biotinylated strand was captured on streptavidin sepharose beads (Amersham Biosciences, Uppsala, Sweden) and annealed with the sequencing primer 5′-[…]-3′. The methylation degree of long interspersed nuclear elements (LINE-1) was computed at 3 CpG sites pyrosequenced with the Pyromark Q24 Pyrosequencer (Qiagen) using the dispensation order […].

[2] = Blood chemistries and biomarkers of hemolysis, thrombophilia, inflammation (LDH, total bilirubin, D-dimer, CRP); format: in vivo, human; conditions: cohorts 4 and 5
Excerpt: Blood counts, blood chemistries, total bilirubin, HbF, LDH, and D-dimer levels were standard clinical pathology tests through the CLIA-certified Clinical Pathology Laboratory at the University of Illinois at Chicago.

[3] = Decitabine storage and solution stability; format: physicochemical; conditions: 18 months at -20 °C
[4] = design: method as in ref 72 (a number printed in a supplementary file, which may have a reference list of its own: not looked up in the article's list); conditions: cited from earlier work
[5] = ref Investigators Brochure, cited from earlier work
[6] = design: method as in Investigators Brochure; conditions: THU co-administration, mice; ref Investigators Brochure; cited from earlier work
[7] = system: Salmonella typhimurium tester strain TA100; design: method as in ref 78 (a number printed in a supplementary file, which may have a reference list of its own: not looked up in the article's list); conditions: cited from earlier work
[8] = system: tumor cell lines; design: method as in ref 83 (a number printed in a supplementary file, which may have a reference list of its own: not looked up in the article's list); conditions: of 25 940 genes analyzed; cited from earlier work
[9] = system: immortal phenotype; design: method as in ref 93 (a number printed in a supplementary file, which may have a reference list of its own: not looked up in the article's list); conditions: cited from earlier work
[10] = cited from earlier work
[11] = cited from earlier work; remark: listed apart in the source
[12] = cited from earlier work; remark: listed apart in the source
[13] = rat, in vivo; cited from earlier work

SMILES: Nc1ncn([C@H]2C[C@H](O)[C@@H](CO)O2)c(=O)n1 [decitabine, 5-aza-2’-deoxycytidine]
- LINE-1 repetitive element CpG methylation decrease in PBMC ([1]; decitabine […] (cohort 5) after THU 10 mg/kg 2X/week): approximately 10%
- LINE-1 CpG methylation decrease in PBMC ([1]; lower decitabine doses (cohorts 1-4)): not with lower decitabine doses
- serum LDH ([2]; biomarker of hemolysis): improved
- total bilirubin ([2]; biomarker of hemolysis): improved
- CRP levels ([2]; biomarker of inflammation): improved
- D-dimer ([2]; biomarker of thrombophilia): improved
- drug substance stability on storage [3]: no change in appearance, assay or impurities
- Max F-cell% ([4]; SC decitabine, mean ± SD, r3 HU non-responders (n=3), r4 HU responders (n=5), r5 all patients (n=8)): 55.1 ± 11.1% and 81.2 ± 4.4% and 71.4 ± 6.5%
- recovery from neutropenia ([4]; all subjects): within a week
- Pre-tx HbF% ([4]; baseline, mean ± SD, r3 HU non-responders, r4 HU responders, r5 all patients): 2.4 ± 1.6% and 9.0 ± 2.5% and 6.5 ± 1.4%
- local toxicity at SQ injection sites [4]: No local toxicity
- bone marrow aspirate spicule cellularity with treatment ([4]; four subjects): no appreciable decrease
- Total Hb, peak ([4]; mean ± 2SD, pre-treatment 7.6 ± 2): 9.6 ± 1.8
- Adh. to laminin, Pretherapy ([4]; mean ± SE, baseline): 3470 ± 500 RBCs/mm^2
- Adhesion to TSP, Pretherapy ([4]; mean ± SE, baseline): 1570 ± 170 RBCs/mm^2
- CRP, Pretherapy ([4]; mean ± SE, baseline): 1.25 ± 0.27 mg/dL
- D-Dimer, Pretherapy ([4]; mean ± SE, baseline): 490 ± 90 ng/mL
- F1+2, Pretherapy ([4]; mean ± SE, baseline): 1.75 ± 0.22 nmol/L
- TAT, Pretherapy ([4]; mean ± SE, baseline): 7.0 ± 1.7 µg/L
- VWFpp, Pretherapy ([4]; mean ± SE, baseline): 196 ± 26 u/dL
- sVCAM, Pretherapy ([4]; mean ± SE, baseline): 1170 ± 140 ng/mL
- Adh. to laminin, Post Cycle 1 ([4]; mean ± SE): 1950 ± 300 RBCs/mm^2
- Adh. to laminin, Post Cycle 2 ([4]; mean ± SE): 1570 ± 210 RBCs/mm^2
- Adhesion to TSP, Post Cycle 1 ([4]; mean ± SE): 690 ± 150 RBCs/mm^2
- Adhesion to TSP, Post Cycle 2 ([4]; mean ± SE): 910 ± 160 RBCs/mm^2
- CRP, Post Cycle 1 ([4]; mean ± SE): 1.19 ± 0.34 mg/dL
- CRP, Post Cycle 2 ([4]; mean ± SE): 0.82 ± 0.26 mg/dL
- D-Dimer, Post Cycle 1 ([4]; mean ± SE): 320 ± 50 ng/mL
- D-Dimer, Post Cycle 2 ([4]; mean ± SE): 300 ± 50 ng/mL
- F1+2, Post Cycle 1 ([4]; mean ± SE): 1.56 ± 0.16 nmol/L
- F1+2, Post Cycle 2 ([4]; mean ± SE): 1.41 ± 0.15 nmol/L
- TAT, Post Cycle 1 ([4]; mean ± SE): 8.6 ± 2.3 µg/L
- TAT, Post Cycle 2 ([4]; mean ± SE): 5.2 ± 0.9 µg/L
- VWFpp, Post Cycle 1 ([4]; mean ± SE): 156 ± 28 u/dL
- VWFpp, Post Cycle 2 ([4]; mean ± SE): 144 ± 13 u/dL
- sVCAM, Post Cycle 1 ([4]; mean ± SE): 930 ± 100 ng/mL
- sVCAM, Post Cycle 2 ([4]; mean ± SE): 840 ± 100 ng/mL
- nadir ANC, NCI grade 4 neutropenia ([4]; one patient): 400 µL⁻¹
- absolute reticulocyte count (ARC) during treatment ([4]; p=0.0006): decreased
- total bilirubin during treatment ([4]; p=0.01): decreased
- nadir ANC, grade 3 neutropenia ([4]; two patients): 800 µL⁻¹
- increase of AUClast compared to oral decitabine alone ([5]; THU co-administration, baboons): approximately 9 fold
- hematologic or other evidence of cytotoxicity ([5]; oral decitabine 5-10 mg/m^2 + oral THU 400 mg/m^2 2-3X/week up to 8 weeks): did not produce hematologic or other evidence of cytotoxicity
- Cmax ([5]; read-out: decitabine Cmax, oral decitabine 100 mg/m^2 + oral THU 400 mg/m^2, in 1 of 7 animals): ~200 nM
- increase of AUClast compared to oral decitabine alone [6]: approximately 9 fold
- mutagenicity [7]: weak mutagen
- genes with increased expression [8]: 0.67%
- immortal phenotype [9]: reversed the immortal phenotype
- greater decitabine exposure in rodents versus human dose for dose [10]: more than 100 fold
- Platelet counts, average increase ([11]; at the 6th week): 2.2 fold
- time to maximum HbF [11]: ≤ 4 weeks
- Total Hb increase ([11]; in 6 of 8 subjects): 1 g/dL
- transient decline in neutrophils ([11]; nadir at 6 weeks): 3 fold
- tolerability ([12]; 124 MDS subjects): well tolerated
- major cytogenetic responses ([12]; MDS subjects with abnormal cytogenetics, 40-50 mg/m^2 3X/wk, courses every 6-8 weeks): 31%
- unusual patterns of cytogenetic instabilities ([12]; MDS subjects): no unusual patterns of cytogenetic instabilities were found
- treatment related deaths ([12]; MDS, 45 mg/m^2/day for 3 days every 6 weeks, ref Saba et al, 2004): no treatment related deaths
- secondary malignancies ([12]; over 1,000 patients with hematologic or solid tumors): no reports of secondary malignancies
- side effects of chronic metronomic very-low-dose decitabine ([12]; patients with myeloid malignancies, treated for years): without significant side effects
- embryo toxicity [13]: fetal resorption and fetal defects
